According to ChEMBL document CHEMBL5634096, “Design, synthesis and bioevaluation of PI3Kα-selective inhibitors as potential colorectal cancer drugs” (Eur J Med Chem, 2023):
Calls of active or inactive are those of the source. No cut-off for these calls is given here.

Tests used:
HCT-116 [1] = experiment: Induction of apoptosis in human HCT-116 cells assessed as increased total apoptotic cells at 12 uM incubated for 48 hrs by Annexin V-FITC and propidium iodide staining based flow cytometry analysis (reference value: 4.22 %); type: functional
HCT-116 [2] = experiment: Inhibition of cell invasion human HCT-116 cells incubated for 48 hrs by crystal violet staining based transwell assay; type: functional; conditions: dose 3-12 µM
[3] = biological target: Receptor-type tyrosine-protein kinase FLT3 (Homo sapiens) (UniProt P36888); experiment: Inhibition of human FLT3 at 1 uM
Sequence of Receptor-type tyrosine-protein kinase FLT3 (Homo sapiens) (P36888 whole entry): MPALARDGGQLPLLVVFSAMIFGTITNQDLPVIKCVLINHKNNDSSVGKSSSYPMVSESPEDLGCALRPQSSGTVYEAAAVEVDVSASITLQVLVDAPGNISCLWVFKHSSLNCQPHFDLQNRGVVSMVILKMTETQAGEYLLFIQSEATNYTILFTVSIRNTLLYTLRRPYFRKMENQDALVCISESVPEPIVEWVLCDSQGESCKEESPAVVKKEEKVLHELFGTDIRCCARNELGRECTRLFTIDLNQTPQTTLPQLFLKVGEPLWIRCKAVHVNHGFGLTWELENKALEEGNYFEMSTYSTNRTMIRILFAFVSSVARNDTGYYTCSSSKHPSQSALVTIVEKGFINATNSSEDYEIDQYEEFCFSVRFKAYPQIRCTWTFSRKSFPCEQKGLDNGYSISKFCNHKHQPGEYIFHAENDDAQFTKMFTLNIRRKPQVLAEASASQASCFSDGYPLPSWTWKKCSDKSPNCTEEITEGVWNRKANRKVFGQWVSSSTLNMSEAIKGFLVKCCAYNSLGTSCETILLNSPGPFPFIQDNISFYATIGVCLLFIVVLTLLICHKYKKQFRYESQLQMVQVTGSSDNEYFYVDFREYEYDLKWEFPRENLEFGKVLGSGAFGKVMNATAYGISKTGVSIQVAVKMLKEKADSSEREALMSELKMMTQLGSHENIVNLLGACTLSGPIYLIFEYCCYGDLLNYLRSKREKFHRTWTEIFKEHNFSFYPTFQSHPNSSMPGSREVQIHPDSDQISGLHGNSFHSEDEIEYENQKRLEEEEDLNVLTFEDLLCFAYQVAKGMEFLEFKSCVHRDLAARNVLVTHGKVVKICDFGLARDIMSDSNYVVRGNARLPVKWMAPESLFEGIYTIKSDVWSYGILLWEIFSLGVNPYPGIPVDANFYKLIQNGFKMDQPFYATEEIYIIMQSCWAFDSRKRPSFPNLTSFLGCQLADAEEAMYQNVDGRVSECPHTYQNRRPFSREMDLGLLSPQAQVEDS

[4] = Clearance in Sprague-Dawley rat at 5 mg/kg, iv measured upto 24 hrs by LC-MS analysis; type: ADME, organism-based; conditions: in vivo
HepG2 = experiment: Antiproliferative activity against human HepG2 cells assessed as reduction in cell viability at 10 uM incubated for 24 to 48 hrs by CCK-8 assay; type: functional, cell-based; conditions: time lower […], time upper 48.0 hrs
SF-126 = experiment: Antiproliferative activity against human SF-126 cells assessed as reduction in cell viability at 10 uM incubated for 24 to 48 hrs by CCK-8 assay; type: functional, cell-based; conditions: time lower […], time upper 48.0 hrs
[5] = Metabolic stability in Sprague-Dawley rat liver microsomes assessed as intrinsic clearance at 5 ug/ml incubated for 1 hr in presence of NADPH by LC-MS/MS analysis; type: ADME, Microsome; conditions: dose 5 µg/ml
[6] = Volume of distribution in Sprague-Dawley rat at 5 mg/kg, iv measured upto 24 hrs by LC-MS analysis; type: ADME, organism-based; conditions: in vivo
HCT-116 [7] = experiment: Induction of apoptosis in human HCT-116 cells assessed as increase in total apoptotic cells at 3 uM incubated for 48 hrs by Annexin V-FITC and propidium iodide staining based flow cytometry analysis (reference value: 4.22 %); type: functional
[8] = Half life in Sprague-Dawley rat at 5 mg/kg, iv measured upto 24 hrs by LC-MS analysis; type: ADME, organism-based; conditions: in vivo
[9] = biological target: Serine/threonine-protein kinase mTOR (Homo sapiens, UniProt P42345); experiment: Inhibition of mTOR (unknown origin) by lance ultra assay
[10] = AUC (0 to t) in Sprague-Dawley rat at 5 mg/kg, iv measured upto 24 hrs by LC-MS analysis; type: ADME, organism-based; conditions: in vivo
[11] = AUC (0 to infinity) in Sprague-Dawley rat at 5 mg/kg, iv measured upto 24 hrs by LC-MS analysis; type: ADME, organism-based; conditions: in vivo
[12] = biological target: Serine/threonine-protein kinase 17A (Homo sapiens) (UniProt Q9UEE5); experiment: Inhibition of human DRAK1 at 1 uM
Sequence of Serine/threonine-protein kinase 17A (Homo sapiens) (Q9UEE5 whole entry): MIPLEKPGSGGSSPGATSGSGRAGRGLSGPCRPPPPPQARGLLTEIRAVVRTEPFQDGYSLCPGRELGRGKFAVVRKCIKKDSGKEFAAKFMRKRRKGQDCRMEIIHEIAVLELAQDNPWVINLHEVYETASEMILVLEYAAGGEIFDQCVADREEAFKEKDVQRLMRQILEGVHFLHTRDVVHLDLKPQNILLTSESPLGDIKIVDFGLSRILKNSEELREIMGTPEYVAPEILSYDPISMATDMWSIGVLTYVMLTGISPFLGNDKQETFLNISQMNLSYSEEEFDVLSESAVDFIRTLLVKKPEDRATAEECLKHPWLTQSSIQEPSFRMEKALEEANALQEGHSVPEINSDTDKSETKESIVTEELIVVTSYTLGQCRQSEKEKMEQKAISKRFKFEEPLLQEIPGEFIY

HCT-116 [13] = experiment: Antiproliferative activity against human HCT-116 cells assessed as inhibition of mTOR phosphorylation incubated for 48 hrs by Western blotting analysis; type: functional, cell-based; conditions: dose 3-12 µM
[14] = biological target: Phosphatidylinositol 4,5-bisphosphate 3-kinase catalytic subunit alpha isoform (Homo sapiens, UniProt P42336); experiment: Inhibition of PI3Kalpha (unknown origin) by ADP-Glo luminescent kinase assay
Sequence of Phosphatidylinositol 4,5-bisphosphate 3-kinase catalytic subunit alpha isoform (P42336 whole entry, canonical isoform): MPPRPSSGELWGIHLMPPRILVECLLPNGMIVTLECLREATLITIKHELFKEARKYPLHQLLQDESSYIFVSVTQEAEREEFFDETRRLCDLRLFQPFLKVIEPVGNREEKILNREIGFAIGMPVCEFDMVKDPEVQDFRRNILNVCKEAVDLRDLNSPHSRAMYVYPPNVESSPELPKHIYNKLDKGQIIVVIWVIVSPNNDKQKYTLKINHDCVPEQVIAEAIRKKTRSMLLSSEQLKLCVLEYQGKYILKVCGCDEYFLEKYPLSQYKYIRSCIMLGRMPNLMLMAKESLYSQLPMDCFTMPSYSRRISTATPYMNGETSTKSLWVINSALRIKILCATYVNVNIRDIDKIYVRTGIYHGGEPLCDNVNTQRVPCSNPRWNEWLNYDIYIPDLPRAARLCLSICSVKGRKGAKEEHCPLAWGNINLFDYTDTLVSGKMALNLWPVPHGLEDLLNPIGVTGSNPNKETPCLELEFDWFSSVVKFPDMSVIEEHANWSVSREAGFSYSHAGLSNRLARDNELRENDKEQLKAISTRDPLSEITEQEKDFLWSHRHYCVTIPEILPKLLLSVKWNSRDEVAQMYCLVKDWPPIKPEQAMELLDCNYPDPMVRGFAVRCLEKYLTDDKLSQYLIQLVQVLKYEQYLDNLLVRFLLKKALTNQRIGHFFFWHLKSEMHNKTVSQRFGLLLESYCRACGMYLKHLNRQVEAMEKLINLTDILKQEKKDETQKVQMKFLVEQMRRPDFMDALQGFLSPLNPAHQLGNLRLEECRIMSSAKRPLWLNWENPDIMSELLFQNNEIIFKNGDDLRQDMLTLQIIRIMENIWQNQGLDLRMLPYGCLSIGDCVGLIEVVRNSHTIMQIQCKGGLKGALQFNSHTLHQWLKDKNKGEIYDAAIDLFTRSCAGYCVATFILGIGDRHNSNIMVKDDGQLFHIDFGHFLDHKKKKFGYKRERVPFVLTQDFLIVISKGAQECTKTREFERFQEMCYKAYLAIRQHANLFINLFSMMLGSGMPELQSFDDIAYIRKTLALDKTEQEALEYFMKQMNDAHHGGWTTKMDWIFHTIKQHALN

MCF7 = experiment: Antiproliferative activity against human MCF7 cells assessed as reduction in cell viability incubated for 24 to 48 hrs by CCK-8 assay; type: functional, cell-based
[15] = Cytotoxicity against human NCM460 cells assessed as reduction in cell viability incubated for 24 to 48 hrs by CCK-8 assay; type: toxicity, cell-based
HCT-116 [16] = experiment: Antiproliferative activity against human HCT-116 cells assessed as reduction in cell viability incubated for 24 to 48 hrs by CCK-8 assay; type: functional, cell-based
A673 = experiment: Antiproliferative activity against human A673 cells assessed as reduction in cell viability at 10 uM incubated for 24 to 48 hrs by CCK-8 assay; type: functional, cell-based; conditions: time lower […], time upper 48.0 hrs
HCT-116 [17] = experiment: Antiproliferative activity against human HCT-116 cells expressing PIK3CA with H1047R mutation assessed as reduction in cell viability incubated for 24 to 48 hrs by CCK-8 assay; type: functional, cell-based
Cytochrome P450 2C9 = Cytochrome P450 2C9 (Homo sapiens, UniProt P11712); experiment: Inhibition of CYP2C9 in human liver microsomes using tolbutamide as substrate pre-incubated for 30 mins followed by substrate addition and measured after 15 mins in presence of NADPH by LC/MS analysis; type: ADME, Microsome
Sequence of Cytochrome P450 2C9 (P11712 whole entry): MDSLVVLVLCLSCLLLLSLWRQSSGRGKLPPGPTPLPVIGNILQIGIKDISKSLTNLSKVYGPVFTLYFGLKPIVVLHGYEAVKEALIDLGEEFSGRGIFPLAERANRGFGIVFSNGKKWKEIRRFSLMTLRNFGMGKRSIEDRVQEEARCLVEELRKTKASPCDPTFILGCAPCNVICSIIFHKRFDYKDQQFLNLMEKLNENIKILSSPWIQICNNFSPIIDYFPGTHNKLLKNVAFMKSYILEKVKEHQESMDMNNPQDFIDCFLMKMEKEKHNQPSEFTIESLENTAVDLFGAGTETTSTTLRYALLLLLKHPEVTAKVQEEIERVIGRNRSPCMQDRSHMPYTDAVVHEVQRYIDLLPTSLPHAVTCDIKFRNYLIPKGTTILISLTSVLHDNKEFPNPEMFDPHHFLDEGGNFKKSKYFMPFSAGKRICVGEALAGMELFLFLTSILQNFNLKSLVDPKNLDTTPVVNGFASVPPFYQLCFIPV

K562 = experiment: Antiproliferative activity against human K562 cells assessed as reduction in cell viability at 10 uM incubated for 24 to 48 hrs by CCK-8 assay; type: functional, cell-based; conditions: time lower […], time upper 48.0 hrs
HCT-116 [18] = experiment: Antiproliferative activity against human HCT-116 cells assessed as inhibition of colony formation at 3 to 12 uM incubated for 48 hrs by crystal violet staining based assay; type: functional, cell-based; conditions: dose 3-12 µM
[19] = Metabolic stability in Sprague-Dawley rat plasma assessed as compound remaining measured upto 3 hrs by LC-MS/MS analysis; type: ADME, cell-free
[20] = biological target: T1, Phosphatidylinositol 4,5-bisphosphate 3-kinase catalytic subunit delta isoform (Homo sapiens, UniProt O00329); experiment: Inhibition of PI3Kdelta (unknown origin) by ADP-Glo luminescent kinase assay
T1 sequence (O00329 whole entry): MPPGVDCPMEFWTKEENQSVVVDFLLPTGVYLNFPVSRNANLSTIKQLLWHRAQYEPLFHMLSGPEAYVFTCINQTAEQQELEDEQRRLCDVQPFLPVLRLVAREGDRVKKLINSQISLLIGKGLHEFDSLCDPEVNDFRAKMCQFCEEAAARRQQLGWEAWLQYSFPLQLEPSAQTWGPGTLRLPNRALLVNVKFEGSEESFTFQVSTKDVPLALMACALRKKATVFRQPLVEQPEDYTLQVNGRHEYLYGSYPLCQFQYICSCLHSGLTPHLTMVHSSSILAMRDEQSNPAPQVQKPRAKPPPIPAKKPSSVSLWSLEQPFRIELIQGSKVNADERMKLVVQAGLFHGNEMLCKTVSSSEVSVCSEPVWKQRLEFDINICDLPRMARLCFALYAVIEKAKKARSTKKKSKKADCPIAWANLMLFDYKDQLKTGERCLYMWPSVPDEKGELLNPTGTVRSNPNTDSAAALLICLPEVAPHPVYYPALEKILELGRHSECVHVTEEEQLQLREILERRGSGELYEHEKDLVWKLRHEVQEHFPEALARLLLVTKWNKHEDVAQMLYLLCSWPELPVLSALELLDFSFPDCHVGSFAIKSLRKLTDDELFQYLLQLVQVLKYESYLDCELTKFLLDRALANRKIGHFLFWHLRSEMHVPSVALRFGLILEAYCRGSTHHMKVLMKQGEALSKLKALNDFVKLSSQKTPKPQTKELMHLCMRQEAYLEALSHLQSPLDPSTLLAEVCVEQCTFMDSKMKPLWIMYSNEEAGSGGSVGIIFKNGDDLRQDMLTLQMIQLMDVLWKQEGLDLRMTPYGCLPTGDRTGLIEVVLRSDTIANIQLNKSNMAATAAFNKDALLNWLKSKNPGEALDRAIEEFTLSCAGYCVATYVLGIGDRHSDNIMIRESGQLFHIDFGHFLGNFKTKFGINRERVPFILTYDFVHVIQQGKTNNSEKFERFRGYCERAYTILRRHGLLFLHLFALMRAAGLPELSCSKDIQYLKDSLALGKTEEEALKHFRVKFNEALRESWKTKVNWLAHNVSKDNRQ

TE-1 = experiment: Antiproliferative activity against human TE-1 cells assessed as reduction in cell viability at 10 uM incubated for 24 to 48 hrs by CCK-8 assay; type: functional, cell-based; conditions: time lower […], time upper 48.0 hrs

In the case of Nc1nc2cc(-c3ccc4ncc(N5C[C@@H]6OCCO[C@@H]6C5)nc4c3)ccc2o1, the Activity (HCT-116 [1]) is reported as 27.03%, the inhibition (HCT-116 [2]) is reported as “Dose-Dependent Effect” and the inhibition [3] is reported as “Active”. The clearance [4] was 10 mL/min/kg, the Activity (HepG2) was “Active” and the Activity (SF-126) was “Active”. The CLH [5] was 6 µL/min/mg, the Vd [6] was 5.2 L/kg and the Activity (HCT-116 [7]) was 5.99%. The half-life [8] was 5.8 h, the IC50 [9] was 601 nM and the AUC(0-t) at 24 h [10] was 8230 ng·h/mL. For the same compound, the AUC(0-inf) [11] was 8250 ng·h/mL, the inhibition [12] was “Active” and the Activity (HCT-116 [13]) was “Dose-Dependent Effect”. It also gave an IC50 [14] of 2.5 nM, an IC50 (MCF7) of 750 nM and an IC50 [15] of 49700 nM. For the same compound, the IC50 (HCT-116 [16]) was 3790 nM, the Activity (A673) was “Active” and the IC50 (HCT-116 [17]) was 7240 nM. The IC50 (Cytochrome P450 2C9) was over 10000 nM, the Activity (K562) was “Active” and the Activity (HCT-116 [18]) was “Active”. The Stability [19] was “Stable”, the IC50 [20] was 111 nM and the Activity (TE-1) was “Active”.
